Here are results for two compounds from US12415939B2, “Nano-adhesive and surface primer compound and use thereof” (The Regents of the University of California, priority 2015, dated 2025).

Type in all cases: physicochemical
Data set [1] is described as follows: Cyclic voltammetry of catechol oxidation. The conditions noted are these: for E1/2: DI water, scan rate 1 mV s−1, Ag/AgCl reference. On the procedure:
(§1) Cyclic voltammetry was performed on a Versastat 3 potentiostat from Ametek Co. These analyses were carried out using a three-electrode cell: a Pt wire as the counter electrode, an Ag/AgCl reference electrode, and a Carbon paste electrode (CPE) served as the working electrode. CPE is the best choice for adhesive materials because of its ability to be completely polished before each experiment. Catechol auto-oxidation was avoided by performing all electrochemical experiments with degassed deionized water in a glove bag under argon. Scan rate 1 mV s-1 was used for all experiments. CV of 5 mM synthesized polymers and 5 mM methyl catechol, a simple catechol-containing compound, were compared. Oxidation of Catechol carrying molecules occurred at more positive potentials than methyl catechol, indicating the unique structure of the dispersions provide shielding effects that stabilized catechol groups (FIG. 3).
Cyclic voltammetry was performed on a Versastat 3 potentiostat from Ametek Co. (Berwyn, PA). These analyses were carried out using a three-electrode cell: a Pt wire as the counter electrode, an Ag/AgCl reference electrode, and a Carbon paste electrode (CPE) served as the working electrode. CPE is the best choice for adhesive materials because of its ability to be completely polished before each experiment.
as §1, with “s^−1” for “s-1”, “molecules” for “polymers”, “groups. Z-Cat-Ben with an oxidation peak at 840 mV is more resistant to oxidation than the other species” for “groups”, “42).” for “3).”

A short description of data set [2]: Surface forces apparatus (SFA) cohesion/adhesion between thin films on mica.
Data set [3] in a line: Contact angle measurements on SAM-modified substrates. The note with it: SAM-modified nano-grooved SiO2. On the procedure: The nano-grooved SiO2 substrates passivated with Z-Cat-Ben or Z-Cat-Ben-F SAMs were prepared with the same procedure described above. For the reference substrate, the pre-cleaned and ultraviolet/ozone-treated (for 10 min) nano-grooved SiO2 substrate was passivated with n-decyltrichlorosilane (Gelest Inc.) in toluene solution (1% by volume) at 80° C. for 20 min in ambient air. Then, the substrate was subsequently sonicated in toluene and rinsed with additional toluene several times. Anhydrous chlorobenzene (50 μL) was used as a droplet dropping on the substrates. All contact angle images were taken at the direction perpendicular to nano-grooves in the substrates using Dataphysics OCA 15EC goniometer.

[4] abbreviates: Z-Cat-C10 0.1 mg ml−1 sample in DI water.

Where “and” joins values, the source holds several entries; their conditions need not be identical. Equal values may be shown once.

On to `C[N+](C)(CCCc1ccccc1)CCOP(=O)([O-])OCCCc1ccc(O)c(O)c1` [Z-Cat-Ben], for which the “stability in water to oxidation (shelf life)” value in data set [1] (5 mM in DI water) is listed as “stable (shelf life) in water to oxidation”. For the same compound, the oxidation peak in data set [1] (5 mM in degassed DI water, 1 mV s−1) turned out to be 840 mV. Further, in data set [1], the E1/2 is recorded as 0.418 V. For the same compound, in data set [2] (500 pmoles periodate), the “effect of sodium periodate treatment on cohesion” value was “same before and after”. The “cohesion energy Wc between SAMs” value in data set [2] (5 mM in DI water, mica) was 19±3 mJ/m^2 and 18.7±2.8 mJ/m^2. In data set [2] (CFe3+=10 M as printed), the “effect of aqueous Fe3+ on cohesion” value is listed as “not affected”. The compound further came in with a hard-wall thickness in data set [2] (SAMs from 5 mM, mica) of about 1 nm. In data set [2] (SAMs on mica), the “cohesion energy Wc before and after periodate and iron treatments” value is listed as about 20 mJ/m^2. Besides, the “molecular density on mica” value in data set [2] (from cohesion energy and π-π interaction) is given as 1.07×10^18 molecules per m^2. In data set [3], the “contact angle θ of chlorobenzene droplet” value was “≈ 1 °”.
In the case of `CN(C)CCOP(=O)(O)OCCCc1ccc(O)c(O)c1` [Z-Cat-C10], the E1/2 in data set [1] is recorded as about 0.25 V. Further, in data set [1] (setting [4]), the oxidation peak was 530 mV and the reduction peak is 316 mV. Besides, the “adhesion on mica relative to mfp-5 and mfp-amyloid fusion protein” value in data set [2] is on record as 2-3 fold. For the same compound, the “increase in adhesion after asymmetric oxidation” value in data set [2] (after tc=60 min contact time) was determined as 50%. Moreover, in data set [2] (contact times ≤tc=10 min, rebounded after tc=60 min), the “decrease in cohesion after symmetric periodate oxidation” value is 50%. For the same compound, the “adhesion energy Wad after periodate oxidation” value in data set [2] (cross-linked films on mica, tc=12 h compressive contact) was about 50 mJ m^−2. In data set [2] (post-oxidation, crosslinked films), the thin film thickness is 2-4 nm. Also, the “cohesion (or adhesion) energy Wc” value in data set [2] (symmetric films adsorbed from 5 mM, DI water, mica) came to 10.1±2.3 mJ m^−2. Moreover, the “work of adhesion before periodate” value in data set [2] (uncross-linked films on mica) is recorded as about 20 mJ m^−2.
